Holding throughout (assay): biochemical
Assay [1] addresses T1, panel of 374 wild-type kinases (Homo sapiens, UniProt P53355).
T1 construct: purchased Reaction Biology Corporation
As to conditions: read-out: % Enzyme Activity (relative to DMSO controls), DAPK1.

Assay [2] concerns the target T2, panel of 374 wild-type kinases (Homo sapiens, UniProt Q09013).
T2 construct: purchased Reaction Biology Corporation
T2 sequence (Q09013 1-629): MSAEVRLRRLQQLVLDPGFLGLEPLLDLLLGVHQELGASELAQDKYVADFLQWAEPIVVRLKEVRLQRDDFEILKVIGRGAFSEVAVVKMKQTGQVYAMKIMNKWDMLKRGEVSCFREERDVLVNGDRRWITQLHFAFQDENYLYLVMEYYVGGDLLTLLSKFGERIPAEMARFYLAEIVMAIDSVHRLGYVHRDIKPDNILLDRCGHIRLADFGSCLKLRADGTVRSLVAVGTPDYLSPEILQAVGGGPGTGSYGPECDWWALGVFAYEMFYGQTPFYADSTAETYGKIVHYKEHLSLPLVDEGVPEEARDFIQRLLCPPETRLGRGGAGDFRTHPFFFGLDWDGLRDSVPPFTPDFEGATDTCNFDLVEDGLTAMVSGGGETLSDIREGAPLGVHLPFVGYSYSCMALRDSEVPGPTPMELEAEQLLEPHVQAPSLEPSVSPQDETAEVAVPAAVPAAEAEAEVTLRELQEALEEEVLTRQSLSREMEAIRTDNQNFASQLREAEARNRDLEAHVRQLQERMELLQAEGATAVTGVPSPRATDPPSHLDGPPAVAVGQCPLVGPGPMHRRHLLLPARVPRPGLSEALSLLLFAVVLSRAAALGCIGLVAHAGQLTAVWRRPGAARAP
As to conditions: read-out: % Enzyme Activity (relative to DMSO controls), DMPK.

Assay [3] deals with T3, panel of 374 wild-type kinases (Homo sapiens, UniProt P08581).
T3 construct: purchased Reaction Biology Corporation
To be noted: read-out: % Enzyme Activity (relative to DMSO controls), c-MET.

Assay [4] addresses T4, panel of 374 wild-type kinases (Homo sapiens, UniProt P29322).
T4 construct: purchased Reaction Biology Corporation
T4 sequence (P29322 28-1005): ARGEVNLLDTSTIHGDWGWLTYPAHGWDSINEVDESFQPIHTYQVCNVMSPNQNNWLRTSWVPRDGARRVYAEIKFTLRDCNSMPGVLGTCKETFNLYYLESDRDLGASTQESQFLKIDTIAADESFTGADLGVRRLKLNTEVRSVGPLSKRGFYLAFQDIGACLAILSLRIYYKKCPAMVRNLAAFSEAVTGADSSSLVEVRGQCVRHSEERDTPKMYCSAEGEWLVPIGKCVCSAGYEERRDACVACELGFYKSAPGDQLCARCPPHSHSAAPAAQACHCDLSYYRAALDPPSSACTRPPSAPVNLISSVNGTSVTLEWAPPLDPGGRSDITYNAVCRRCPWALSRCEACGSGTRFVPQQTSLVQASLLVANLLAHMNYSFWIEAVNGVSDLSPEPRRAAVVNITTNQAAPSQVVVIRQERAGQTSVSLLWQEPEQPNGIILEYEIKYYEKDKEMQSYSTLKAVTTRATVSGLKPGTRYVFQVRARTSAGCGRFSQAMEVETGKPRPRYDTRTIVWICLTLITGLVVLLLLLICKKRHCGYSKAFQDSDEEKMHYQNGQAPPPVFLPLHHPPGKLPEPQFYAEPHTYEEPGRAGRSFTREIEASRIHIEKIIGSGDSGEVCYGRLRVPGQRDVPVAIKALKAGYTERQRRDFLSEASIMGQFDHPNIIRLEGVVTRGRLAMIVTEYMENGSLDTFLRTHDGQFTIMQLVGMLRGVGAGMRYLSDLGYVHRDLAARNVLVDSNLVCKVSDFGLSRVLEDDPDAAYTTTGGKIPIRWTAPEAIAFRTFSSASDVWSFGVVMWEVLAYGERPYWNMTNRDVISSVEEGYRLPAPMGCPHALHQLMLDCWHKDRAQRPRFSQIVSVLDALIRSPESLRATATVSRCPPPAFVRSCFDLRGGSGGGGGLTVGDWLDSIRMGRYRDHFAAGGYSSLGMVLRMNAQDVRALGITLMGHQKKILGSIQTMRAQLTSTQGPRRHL
To be noted: read-out: % Enzyme Activity (relative to DMSO controls), EPHA8.

Assay [5] concerns the target T5, panel of 374 wild-type kinases (Homo sapiens, UniProt O75116).
T5 construct: purchased Reaction Biology Corporation
To be noted: read-out: % Enzyme Activity (relative to DMSO controls), kinase ROCK2.

Assay [6] deals with T6, panel of 374 wild-type kinases (Homo sapiens, UniProt Q8TF76).
T6 construct: purchased Reaction Biology Corporation
T6 sequence (Q8TF76 1-798): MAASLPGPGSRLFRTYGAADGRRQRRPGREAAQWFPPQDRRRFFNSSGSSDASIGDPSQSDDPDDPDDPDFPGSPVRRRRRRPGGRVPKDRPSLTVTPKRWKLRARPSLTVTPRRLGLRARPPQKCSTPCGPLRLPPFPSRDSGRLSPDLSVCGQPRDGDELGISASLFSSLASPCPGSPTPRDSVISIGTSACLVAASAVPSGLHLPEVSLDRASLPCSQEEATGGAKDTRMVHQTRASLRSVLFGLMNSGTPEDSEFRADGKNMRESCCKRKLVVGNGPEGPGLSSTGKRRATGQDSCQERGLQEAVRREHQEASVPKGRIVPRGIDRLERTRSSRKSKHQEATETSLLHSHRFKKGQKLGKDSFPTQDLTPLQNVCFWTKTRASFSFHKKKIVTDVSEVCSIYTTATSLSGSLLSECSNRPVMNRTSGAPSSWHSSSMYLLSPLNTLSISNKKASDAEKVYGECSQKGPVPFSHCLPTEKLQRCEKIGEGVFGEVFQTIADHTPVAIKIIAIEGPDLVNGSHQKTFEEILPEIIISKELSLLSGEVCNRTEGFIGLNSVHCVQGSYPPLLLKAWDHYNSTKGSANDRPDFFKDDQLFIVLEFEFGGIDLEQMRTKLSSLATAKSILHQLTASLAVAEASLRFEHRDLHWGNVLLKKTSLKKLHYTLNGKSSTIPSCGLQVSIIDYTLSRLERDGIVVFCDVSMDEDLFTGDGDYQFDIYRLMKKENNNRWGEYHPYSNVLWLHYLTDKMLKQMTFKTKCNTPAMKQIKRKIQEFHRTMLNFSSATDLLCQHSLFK
As to conditions: read-out: % Enzyme Activity (relative to DMSO controls), Haspin.

T5 sequence (O75116 whole entry): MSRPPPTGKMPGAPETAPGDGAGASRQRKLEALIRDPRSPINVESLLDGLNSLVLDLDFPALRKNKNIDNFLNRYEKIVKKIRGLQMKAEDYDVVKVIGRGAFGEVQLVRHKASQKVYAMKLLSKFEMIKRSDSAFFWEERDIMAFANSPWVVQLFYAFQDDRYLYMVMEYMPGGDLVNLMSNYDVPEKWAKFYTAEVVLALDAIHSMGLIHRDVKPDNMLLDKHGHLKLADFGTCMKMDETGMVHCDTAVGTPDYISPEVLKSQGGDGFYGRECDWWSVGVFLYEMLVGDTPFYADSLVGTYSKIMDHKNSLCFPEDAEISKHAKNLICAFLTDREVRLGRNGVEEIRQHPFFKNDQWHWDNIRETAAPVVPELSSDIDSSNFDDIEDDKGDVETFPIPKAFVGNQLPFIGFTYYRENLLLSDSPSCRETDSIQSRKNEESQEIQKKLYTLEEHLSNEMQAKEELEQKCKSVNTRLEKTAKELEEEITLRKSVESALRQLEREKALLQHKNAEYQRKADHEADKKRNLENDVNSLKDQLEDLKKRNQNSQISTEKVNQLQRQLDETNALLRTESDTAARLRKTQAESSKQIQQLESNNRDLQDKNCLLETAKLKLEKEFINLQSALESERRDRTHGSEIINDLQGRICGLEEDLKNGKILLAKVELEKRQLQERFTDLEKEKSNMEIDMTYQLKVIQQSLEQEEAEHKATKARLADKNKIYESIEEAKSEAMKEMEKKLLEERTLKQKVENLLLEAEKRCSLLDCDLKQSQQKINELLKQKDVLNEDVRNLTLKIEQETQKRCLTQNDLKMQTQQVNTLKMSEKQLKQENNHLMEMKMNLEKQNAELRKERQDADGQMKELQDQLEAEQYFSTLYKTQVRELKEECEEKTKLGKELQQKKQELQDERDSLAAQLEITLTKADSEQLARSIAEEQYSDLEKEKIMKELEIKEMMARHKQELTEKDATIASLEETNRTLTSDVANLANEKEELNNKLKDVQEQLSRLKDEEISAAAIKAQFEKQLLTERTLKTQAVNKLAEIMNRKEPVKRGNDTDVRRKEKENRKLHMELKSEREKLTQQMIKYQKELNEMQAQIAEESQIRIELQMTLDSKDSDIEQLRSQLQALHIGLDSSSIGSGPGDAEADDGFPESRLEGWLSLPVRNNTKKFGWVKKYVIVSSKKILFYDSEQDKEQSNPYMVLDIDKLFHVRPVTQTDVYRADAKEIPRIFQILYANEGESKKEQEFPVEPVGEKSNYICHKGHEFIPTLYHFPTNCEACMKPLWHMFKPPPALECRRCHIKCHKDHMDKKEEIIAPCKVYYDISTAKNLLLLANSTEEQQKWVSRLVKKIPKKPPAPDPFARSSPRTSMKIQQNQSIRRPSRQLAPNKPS
T1 sequence (P53355 whole entry): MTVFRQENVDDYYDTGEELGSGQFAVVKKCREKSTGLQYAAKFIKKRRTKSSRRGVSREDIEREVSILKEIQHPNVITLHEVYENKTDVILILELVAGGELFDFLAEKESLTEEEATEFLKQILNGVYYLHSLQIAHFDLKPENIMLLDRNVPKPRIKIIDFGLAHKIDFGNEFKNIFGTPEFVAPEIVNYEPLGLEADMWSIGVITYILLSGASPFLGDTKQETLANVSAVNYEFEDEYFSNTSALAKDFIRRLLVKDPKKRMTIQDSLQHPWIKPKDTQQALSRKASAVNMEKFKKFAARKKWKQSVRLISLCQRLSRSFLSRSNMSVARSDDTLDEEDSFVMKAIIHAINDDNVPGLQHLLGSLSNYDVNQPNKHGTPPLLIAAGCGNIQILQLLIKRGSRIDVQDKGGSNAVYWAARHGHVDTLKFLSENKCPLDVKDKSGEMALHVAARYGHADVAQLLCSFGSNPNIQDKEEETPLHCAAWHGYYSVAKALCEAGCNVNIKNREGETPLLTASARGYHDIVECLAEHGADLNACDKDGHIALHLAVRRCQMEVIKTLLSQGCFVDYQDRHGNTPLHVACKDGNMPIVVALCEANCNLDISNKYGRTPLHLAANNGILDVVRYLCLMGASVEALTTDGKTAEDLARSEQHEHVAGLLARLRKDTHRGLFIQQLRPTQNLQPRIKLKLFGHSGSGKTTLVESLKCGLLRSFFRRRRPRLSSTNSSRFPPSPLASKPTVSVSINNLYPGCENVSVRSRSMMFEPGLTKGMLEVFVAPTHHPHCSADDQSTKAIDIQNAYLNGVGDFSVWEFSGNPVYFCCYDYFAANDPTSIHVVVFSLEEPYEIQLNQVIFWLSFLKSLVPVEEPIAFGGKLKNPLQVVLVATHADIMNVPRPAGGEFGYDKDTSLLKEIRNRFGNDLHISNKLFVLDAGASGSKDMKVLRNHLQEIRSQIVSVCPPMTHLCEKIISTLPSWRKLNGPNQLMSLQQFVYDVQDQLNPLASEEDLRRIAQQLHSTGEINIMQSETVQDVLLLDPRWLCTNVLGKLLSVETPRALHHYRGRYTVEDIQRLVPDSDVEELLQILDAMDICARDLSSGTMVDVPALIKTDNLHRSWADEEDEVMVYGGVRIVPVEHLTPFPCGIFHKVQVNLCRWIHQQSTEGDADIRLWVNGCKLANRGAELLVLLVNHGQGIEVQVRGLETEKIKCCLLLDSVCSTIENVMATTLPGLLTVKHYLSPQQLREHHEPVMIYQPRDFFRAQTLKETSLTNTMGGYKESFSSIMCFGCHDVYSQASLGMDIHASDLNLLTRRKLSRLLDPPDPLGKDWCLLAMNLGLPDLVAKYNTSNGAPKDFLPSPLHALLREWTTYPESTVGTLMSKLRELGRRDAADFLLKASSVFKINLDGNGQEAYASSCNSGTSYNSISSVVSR
T3 sequence (P08581 25-1390): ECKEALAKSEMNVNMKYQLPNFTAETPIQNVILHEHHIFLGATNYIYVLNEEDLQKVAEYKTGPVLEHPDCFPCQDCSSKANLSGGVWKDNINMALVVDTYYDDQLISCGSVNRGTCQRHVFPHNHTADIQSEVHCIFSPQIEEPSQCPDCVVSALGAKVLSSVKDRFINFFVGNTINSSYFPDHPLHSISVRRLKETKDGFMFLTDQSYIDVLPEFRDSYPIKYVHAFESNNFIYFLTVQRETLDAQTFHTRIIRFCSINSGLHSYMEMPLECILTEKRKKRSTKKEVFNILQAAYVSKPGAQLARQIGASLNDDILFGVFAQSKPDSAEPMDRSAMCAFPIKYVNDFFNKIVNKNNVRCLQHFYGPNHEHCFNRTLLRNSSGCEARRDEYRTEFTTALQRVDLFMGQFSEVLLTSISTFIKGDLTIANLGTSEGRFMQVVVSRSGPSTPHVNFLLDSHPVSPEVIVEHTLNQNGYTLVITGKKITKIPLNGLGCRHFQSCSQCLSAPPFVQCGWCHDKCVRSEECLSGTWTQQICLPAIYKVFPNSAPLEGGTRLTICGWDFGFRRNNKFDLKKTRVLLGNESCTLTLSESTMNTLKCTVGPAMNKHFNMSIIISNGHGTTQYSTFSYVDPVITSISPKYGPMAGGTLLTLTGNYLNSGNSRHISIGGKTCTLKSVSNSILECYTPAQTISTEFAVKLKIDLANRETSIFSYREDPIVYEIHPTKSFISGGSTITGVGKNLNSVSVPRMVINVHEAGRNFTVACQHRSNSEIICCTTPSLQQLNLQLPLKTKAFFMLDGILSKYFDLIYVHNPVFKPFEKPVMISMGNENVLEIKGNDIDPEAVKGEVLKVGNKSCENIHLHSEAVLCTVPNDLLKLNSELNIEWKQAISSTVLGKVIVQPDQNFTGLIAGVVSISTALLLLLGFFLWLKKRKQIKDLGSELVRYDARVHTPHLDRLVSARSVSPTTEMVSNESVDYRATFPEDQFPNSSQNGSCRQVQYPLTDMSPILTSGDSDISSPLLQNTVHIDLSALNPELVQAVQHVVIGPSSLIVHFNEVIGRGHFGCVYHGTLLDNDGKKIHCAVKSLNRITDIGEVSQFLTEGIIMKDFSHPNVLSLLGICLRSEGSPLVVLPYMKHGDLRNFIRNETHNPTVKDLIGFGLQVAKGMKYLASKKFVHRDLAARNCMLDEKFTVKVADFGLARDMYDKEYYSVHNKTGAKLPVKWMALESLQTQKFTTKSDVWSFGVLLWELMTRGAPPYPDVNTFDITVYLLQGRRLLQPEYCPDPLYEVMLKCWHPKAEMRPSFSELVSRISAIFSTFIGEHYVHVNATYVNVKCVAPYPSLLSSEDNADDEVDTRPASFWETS

As to `O=C(Nc1cnn(-c2csc(C(=O)NC3COC3)c2)c1)Nc1ccccc1Cl` [Compound 17, 4-(4-(3-(2-chlorophenyl)ureido)-1H-pyrazol-1-yl)-N-(oxetan-3-yl)thiophene-2-carboxamide], the remaining activity at 5 µM is 104% in assay [1]; 102% in assay [2]; 102% in assay [3]; 103% in assay [4]; 100% in assay [5]; 112% in assay [6].

As to `O=C(Nc1cnn(-c2csc(C(=O)NC3COC3)c2)c1)Nc1c(F)cccc1Cl` [Compound 25, 4-(4-(3-(2-chloro-6-fluorophenyl)ureido)-1H-pyrazol-1-yl)-N-(oxetan-3-yl)thiophene-2-carboxamide], the remaining activity at 5 µM in assay [1] was 98.9%; in assay [2], 110%; in assay [3] it was 86.1%; in assay [4], 93.8%; in assay [5], 107%; in assay [6], 111%.

`Cc1sc(C(=O)NC2COC2)cc1-n1cc(NC(=O)Nc2c(F)cccc2Cl)cn1` [Compound 27, 4-(4-(3-(2-chloro-6-fluorophenyl)ureido)-1H-pyrazol-1-yl)-5-methyl-N-(oxetan-3-yl)thiophene-2-carboxamide]: the remaining activity at 10 µM in assay [1] (10 uM) amounted to 104%; in assay [2] (10 uM), 95.2%; in assay [3] (10 uM), 77%; in assay [4] (10 uM) it was 91.7%; in assay [5] (10 uM) it was 93.6%; in assay [6] (10 uM), 92.4%.

Values taken from US20240246942A1, “KINASE INHIBITORS FOR THE TREATMENT OF NEURODEGENERATIVE DISEASES” (priority 2020, published 2024).
